Series [1] has as its system MUTU-1 Burkitt lymphoma cell line (EBV+). The series can be described thus: cells. Conditions: Mutu-1, 24 h; for IC50: read-out: IC50 MUTU-I 24 h; for viability at 1 µM: read-out: MUTU-1 Cell Viability % 1 μM, 1 μM, 24 h; for viability at 10 µM: read-out: MUTU-1 Cell Viability % 10 μM, 10 μM, 24 h.
The test system of series [2] is DG-75 Burkitt lymphoma cell line (EBV−, chemoresistant). The series can be described thus: cells. Conditions: Homo sapiens, DG-75, 48 h; for viability at 1 µM: read-out: DG-75 Cell Viability % 1 μM, 1 μM, 48 h; for viability at 10 µM: read-out: DG-75 Cell Viability % 10 μM, 10 μM, 48 h.

In turn, `Nc1ccc(N2C(=O)C3C4c5ccccc5C(/C=C/[N+](=O)[O-])(c5ccccc54)C3C2=O)cc1` (centres unmarked) [Compound 16n, (E)-13-(4-Aminophenyl)-9-(2-nitrovinyl)-9,10-dihydro-9,10-[3,4]epipyrroloanthracene-12,14-dione] registered a melting point of over 300 °C. Also, in series [1], the IC50 amounted to 300 nM, the viability at 1 µM came to 1.7% and the viability at 10 µM turned out to be 3.7%. Besides, in series [2], the viability at 1 µM was 20.8% and the viability at 10 µM came to 0.18%.
`COc1cc(CN2C(=O)C3C4c5ccccc5C(/C=C(\C)[N+](=O)[O-])(c5ccccc54)C3C2=O)cc(OC)c1OC` (centres unmarked) [Compound 17l, (E)-9-(2-Nitroprop-1-en-1-yl)-13-(3,4,5-trimethoxybenzyl)-9,10-dihydro-9,10-[3,4]epipyrroloanthracene-12,14-dione] displayed a melting point of 227 to 229 °C. Also, in series [1], the viability at 1 µM amounted to 66.8% and the viability at 10 µM was found to be 77.3%. Further, in series [2], the viability at 1 µM came out at 81.9% and the viability at 10 µM worked out at 82.1%.
The corresponding values for `C/C(=C\C12c3ccccc3C(c3ccccc31)C1C(=O)N(Cc3ccccc3)C(=O)C12)[N+](=O)[O-]` (centres unmarked) [Compound 17j, (E)-13-Benzyl-9-(2-nitroprop-1-en-1-yl)-9,10-dihydro-9,10-[3,4]epipyrroloanthracene-12,14-dione] are 232 to 236 °C, 94.6%, 85.6%, 104% and 87.9%.
The corresponding values for `O=C1C2C3c4ccccc4C(/C=N/O)(c4ccccc43)C2C(=O)N1c1ccccc1` (centres unmarked) [Compound 23k, (E)-12,14-Dioxo-13-phenyl-9,10-[3,4]epipyrroloanthracene-9(10H)-carbaldehyde oxime] are 238 to 242 °C, 96.9%, 83.9%, 81.7% and 74.1%.
The like results for `O=C1OC(=O)C2C1C1c3ccccc3C2(CC[N+](=O)[O-])c2ccccc21` (centres unmarked) [Compound 14a, 9-(2-Nitroethyl)-9,10-dihydro-9,10-[3,4]furanoanthracene-12,14-dione] were, in that order, 242 to 244 °C, 76.7%, 99.3%, 83% and 102%.
On to `CC(=O)OC1(C#N)CC2c3ccccc3C1(/C=C/[N+](=O)[O-])c1ccccc12` (centres unmarked) [Compound 19d, (E)-11-Cyano-10-(2-nitrovinyl)-9,10-dihydro-9,10-ethanoanthracen-11-yl acetate], for which the melting point was in the range of 168 to 170 °C. In series [1], the viability at 1 µM is 48.9% and the viability at 10 µM came out at 0.69%. Besides, in series [2], the viability at 1 µM stood at 99.4% and the viability at 10 µM is 1%.
`O=C(c1ccccc1)c1ccc(N2C(=O)C3C4c5ccccc5C(/C=C/[N+](=O)[O-])(c5ccccc54)C3C2=O)cc1` (centres unmarked) [Compound 16i, (E)-13-(4-Benzoylphenyl)-9-(2-nitrovinyl)-9,10-dihydro-9,10-[3,4]epipyrroloanthracene-12,14-dione]: the melting point lay within 232 to 234 °C. Besides, in series [1], the IC50 came to 240 nM, the viability at 1 µM came to 2% and the viability at 10 µM is 1.2%. Also, in series [2], the viability at 1 µM amounted to 77.5% and the viability at 10 µM was determined as 2.7%.
The molecule `CC/C(=C\C12c3ccccc3C(c3ccccc31)C1C(=O)NC(=O)C12)[N+](=O)[O-]` (centres unmarked) [Compound 13i, (E)-9-(2-Nitrobut-1-en-1-yl)-9,10-dihydro-9,10-[3,4]epipyrroloanthracene-12,14-dione] displayed a melting point of 296 to 298 °C. In series [1], the viability at 1 µM came out at 91.1% and the viability at 10 µM was determined as 73%. Further, in series [2], the viability at 1 µM came to 96.3% and the viability at 10 µM came out at 89.4%.
The like results for `N#C/C=C/C12c3ccccc3C(c3ccccc31)C1C(=O)N(c3ccccc3)C(=O)C12` (centres unmarked) [Compound 23c, (E)-3-(12,14-Dioxo-13-phenyl-9,10-[3,4]epipyrroloanthracen-9(10H)-yl)acrylonitrile] were, in that order, 274 to 281 °C, 90.7%, 74.1%, 94.4% and 89.1%.
The like results for `C/C(=C\C12c3ccccc3C(c3ccccc31)C1C(=O)N(c3ccc(Cl)cc3)C(=O)C12)[N+](=O)[O-]` (centres unmarked) [Compound 17c, (E)-13-(4-Chlorophenyl)-9-(2-nitroprop-1-en-1-yl)-9,10-dihydro-9,10-[3,4]epipyrroloanthracene-12,14-dione] were, in that order, 298 to 300 °C, 78%, 77.6%, 96.6% and 86.3%.
The corresponding values for `COC(=O)C1C2c3ccccc3C(/C=C/[N+](=O)[O-])(c3ccccc32)C1C(=O)OC` (centres unmarked) [Compound 19e, Dimethyl (E)-9-(2-nitrovinyl)-9,10-dihydro-9,10-ethanoanthracene-11,12-dicarboxylate] are 141 to 143 °C, 84.7%, 10.7%, 102% and 10.3%.
`O=C1NC(=O)C2C1C1c3ccccc3C2(/C=N/O)c2ccccc21` (centres unmarked) [Compound 23j, (E)-12,14-Dioxo-9,10-[3,4]epipyrroloanthracene-9(10H)-carbaldehyde oxime] came in with a melting point of 272 to 273 °C. Also, in series [1], the viability at 1 µM is 92.8% and the viability at 10 µM came to 87.6%. Besides, in series [2], the viability at 1 µM is 69.1% and the viability at 10 µM turned out to be 63.9%.
The corresponding values for `CC/C(=C\C12c3ccccc3C(Cl)(c3ccccc31)C1C(=O)N(c3ccccc3)C(=O)C12)[N+](=O)[O-]` (centres unmarked) [Compound 17h, (E)-9-Chloro-10-(2-nitrobut-1-en-1-yl)-13-phenyl-9,10-dihydro-9,10-[3,4]epipyrroloanthracene-12,14-dione] are 261 to 262 °C, 107%, 96.3%, 89.2% and 90.3%.
As for `O=C1C2C3c4ccccc4C(/C=C/[N+](=O)[O-])(c4ccccc43)C2C(=O)N1CCc1ccccc1` (centres unmarked) [Compound 17n], the melting point lay within 152 to 156 °C. In series [1], the IC50 worked out at 260 nM, the viability at 1 µM was determined as 2.8% and the viability at 10 µM turned out to be 2%. Further, in series [2], the viability at 1 µM turned out to be 19.9% and the viability at 10 µM amounted to 0.07%.
The molecule `C/C(=C\C12c3ccccc3C(Cl)(c3ccccc31)C1C(=O)N(c3ccccc3)C(=O)C12)[N+](=O)[O-]` (centres unmarked) [Compound 17g, (E)-9-Chloro-10-(2-nitroprop-1-en-1-yl)-13-phenyl-9,10-dihydro-9,10-[3,4]epipyrroloanthracene-12,14-dione] returned a melting point of 268 to 271 °C. In addition, in series [1], the viability at 1 µM was found to be 88% and the viability at 10 µM worked out at 78.5%. Also, in series [2], the viability at 1 µM turned out to be 85.3% and the viability at 10 µM amounted to 84.3%.
The like results for `O=C1C2C3c4ccccc4C(/C=C/[N+](=O)[O-])(c4ccccc43)C2C(=O)N1Cc1ccccc1` (centres unmarked) [Compound 17i, (E)-13-Benzyl-9-(2-nitrovinyl)-9,10-dihydro-9,10-[3,4]epipyrroloanthracene-12,14-dione] were, in that order, 232 to 236 °C, 74.9%, 0.86%, 93.1% and 0.67%.
In the case of `CC/C(=C\C12c3ccccc3C(c3ccccc31)C1C(=O)N(Cc3ccccc3)C(=O)C12)[N+](=O)[O-]` (centres unmarked) [Compound 17k, (E)-13-Benzyl-9-(2-nitrobut-1-en-1-yl)-9,10-dihydro-9,10-[3,4]epipyrroloanthracene-12,14-dione], the melting point fell in the range of 188 to 199 °C. In series [1], the viability at 1 µM was 80.4% and the viability at 10 µM is 94%. In series [2], the viability at 1 µM was determined as 74.8% and the viability at 10 µM is 96%.
Turning to `CCOC(=O)C1C2c3ccccc3C(/C=C/[N+](=O)[O-])(c3ccccc32)C1C(=O)OCC` (centres unmarked) [Compound 19f, Diethyl (E)-9-(2-nitrovinyl)-9,10-dihydro-9,10-ethanoanthracene-11,12-dicarboxylate], the melting point fell in the range of 151 to 152 °C. In addition, in series [1], the IC50 came to 550 nM, the viability at 1 µM worked out at 13.6% and the viability at 10 µM was determined as 13.8%. Further, in series [2], the viability at 1 µM worked out at 13.9% and the viability at 10 µM was determined as 13.8%.
For the molecule `CC/C(=C\C12c3ccccc3C(c3ccccc31)C1C(=O)OC(=O)C12)[N+](=O)[O-]` (centres unmarked) [Compound 13c, (E)-9-(2-Nitrobut-1-en-1-yl)-9,10-dihydro-9,10-[3,4]furanoanthracene-12,14-dione], the melting point lay within 230 to 233 °C. Further, in series [1], the viability at 1 µM was found to be 64.1% and the viability at 10 µM is 74.1%. In series [2], the viability at 1 µM was 68% and the viability at 10 µM came to 80.7%.
In turn, `C/C(=C\C12c3ccccc3C(Cl)(c3ccccc31)C1C(=O)NC(=O)C12)[N+](=O)[O-]` (centres unmarked) [Compound 13k, (E)-9-Chloro-10-(2-nitroprop-1-en-1-yl)-9,10-dihydro-9,10-[3,4]epipyrroloanthracene-12,14-dione] had a melting point of 295 to 297 °C. Further, in series [1], the viability at 1 µM worked out at 83.3% and the viability at 10 µM stood at 51.6%. Besides, in series [2], the viability at 1 µM worked out at 78.2% and the viability at 10 µM worked out at 101%.

As usually defined, the IC50 is the concentration that gives 50% inhibition. By viability is commonly meant a read-out of living cells in per cent, often relative to untreated cells. By melting point is commonly meant the temperature, or range, at which the solid turns liquid.

The values above are taken from PMC7168933, “Design, Synthesis and Biochemical Evaluation of Novel Ethanoanthracenes and Related Compounds to Target Burkitt’s Lymphoma” (Pharmaceuticals, 2020).
